Data taken from patent publication US20030134859A1 (SANKYO COMPANY, LIMITED, priority 2000, published 2003).
Counter-ions that a name gives are not always drawn.

Legend:
[1] = test system: Mouse preadipocyte strain 3T3-L1; assay: Inhibition of differentiation as an indication of acetic acid uptake; type: cell-based; details: Mus musculus, 3T3-L1, 0.1 μM test substance, control (0.01% dimethylsulfoxide) = 100%, read-out: Rate of Uptake (%) of [2-14C] acetic acid
Experimental: As the basal medium, Dulbecco's modified Eagle's (DEM) medium (NISSUI PHARMACEUTICAL CO., LTD) was used. […] All culturing in the present Test Example was carried out in a CO2 incubator at 37° C. and 10% CO2 concentration.
The successively cultured 3T3-L1 cells were inoculated in a Biocoat Collagen I 96-well white/clear plate (Becton Dickinson and Co.) at a concentration of 4,900 cells/well, and were cultured in the basal medium containing added 10% (v/v) inactivated bovine fetal serum (FBS) for 10 days.
The medium was replaced with a differentiation-inducing medium in which inactivated FBS (final concentration: 5%), insulin (Sigma-Aldrich Japan K. K., final concentration: 10 μg/mL), isobutyl methyl xanthine (Aldrich K. K., final concentration: 0.5 mM) and dexamethazone (final concentration: 1 μM) were added so as to be at the final concentrations indicated in the parentheses. The cells were divided in the following 2 groups and were cultured for 4 days; 1) in the presence of 0.01% (v/v) dimethylsulfoxide, and 2) in the presence of 0.01% (v/v) dimethylsulfoxide in which was dissolved 1 mM of the test substance (final concentration of 0.1 μM). Then, the medium was further replaced with a maintenance medium in which inactivated […] and insulin were added to the base medium so as to be at final concentrations of 5% and 100 ng/mL, respectively, and the cells were cultured for 2 days.
The inhibitory activity of the test compound against cell differentiation was assayed by using uptake of [2-^14C] acetic acid into the cultured cells as an indicator. […] Then the cells were further incubated with the newly prepared medium for 1 hr. After washing the well with PBS (−), the cells were dried. To these wells, 100 μL/well of a scintillation cocktail (Hewlett-Packard Co., MICROSCINT-20 PACKARD) were added and their radioactivities were determined with a Packard TopCont microplate Scintillation Counter (Hewlett-Packard Co., PACKARD) and the uptake level of [2-^14C] acetic acid into the cultured cell was calculated.
On the basis of the calculated uptake level of [2-^14C] acetic acid into the cultured cells, the relative uptake level of [2-^14C] acetic acid in the group treated with the test compound was calculated against the uptake level of [2-^14C] acetic acid in the presence of 0.01% (v/v) dimethylsulfoxide solution described in 1) (100%).
Value=Uptake Level (cpm) of [2-^14C] Acetic Acid in the Presence of the Test Substance
Control=Uptake Level (cpm) of [2-^14C] Acetic Acid in the Control Group (0.01% dimethylsulfoxide)
Uptake Rate (%) of [2-^14C] Acetic Acid=100×[Value]/[Control]

leptin production = assay: Enhancing activity for leptin production in adipocytes (ELISA); type: cell-based, rat; details: Rattus norvegicus, Adipocyte, 24 h, leptin concentration as % of control group, read-out: Facilitating activity to produce leptin; for activity at 0.1 µM: 100 nm
Experimental: Hanks solution was used for collection of adipose tissue. The Hanks solution was prepared by filtration of a mixed solution (pH: 7.5) of 120 mM NaCl, 4.8 mM KCl, 0.74 mM MgSO4, 0.30 mM Na2HPO4, 0.40 mM KH2PO4, 20 mM HEPES, 0.05% (w/v) glucose, 2% (w/v) BSA (Sigma-Aldrich Japan K. K., Cat. No. A7888), 0.95 mM CaCl2, 4.17 mM NaHCO3 and 1% (v/v) penicillin-streptomycin liquid (GIBCO BRL, Cat. No. 15140-122). The adipocytes were cultured in Dulbecco's modified Eagle's medium (GIBCO BRL, Cat. No. 11995-040) mixed with DMEM/F-12 (GIBCO BRL, Cat. No. 11320-033) at a ratio of 1:1, and added 0.2% (v/v) Hanks solution, 0.2 μg/L sodium selenite (GIBCO BRL, Cat. No. 13012-018), 0.002% (v/v) ethanolamine, 25 mM HEPES and 1% (v/v) penicillin-streptomycin liquid (GIBCO BRL, Cat. No. 15140-122). As many as possible of the other reagents used were special grade. In this experiment, the cells were cultured in a CO2 incubator (37° C., 95% humidity, 5% CO2).
Male Wistar Imamichi rats of 6 weeks old were sacrificed by bleeding following decapitation, and adipose tissue was removed from the epididymis and sectioned after the vessels were removed in warmed Hanks solution at 37° C. and were weighed. One (1) mL of Hanks solution containing 10 mg collagenase (Wako Pure Chemical Industries, Ltd., 034-10533) was added to the adipose tissue prepared. The solution was transferred into a tube having a volume of 50 mL, and the cells were evenly dispersed by incubation under gentle shaking at 37° C., 90 rpm, for 50 min. Then 20 mL of Hanks solution were added and filtrated through Nylon-mesh with a mesh diameter of 200 μm for removal of undigested tissue pieces. The floating adipocytes were separated from sediments and substances located in the lower layer by centrifugation at 1,000 rpm for 1 min at room temperature. The sediment and 22 mL of the low layer were pulled out with a probe, and the floating adipocytes were recovered. This procedure was repeated twice with Hanks solution and for 4 times with the culture medium. After these procedures the adipocytes were suspended in the culture medium at a volume of 60 mL per 1 g of the adipose tissue weighed previously. 100 μL of the suspended solution were plated in each well of a 96-well microplate (ASAHI TECHNO GLASS Corp.) In the group treated with the test compound, 1 μL/well of DMSO solution containing the dissolved the test compound at concentrations of 200 μM, 20 μM, 2 μM and 0.2 μM (final concentrations of the test compound: 1 μM, 100 nM, 10 nM and 1 nM, respectively) was plated in each of the well. In the control group, 1 μL/well of DMSO (final concentration: 0.1% (v/v)) was plated in each well. The plate was placed stationary in a CO2 incubator for 1 hr or longer, and the contents in the solution were equilibrated at 37° C. After they were equilibrated, the solution in each well was stirred with a magnetic stirrer in a water bath and the suspended solution maintained at 37° C. was plated into each well of the plate at 100 μL/well. After incubation of the cells for 24 hr, the suspended solution of cells was filtrated through a filter for the microplate, MultiScreen (MILLOPORE, MDV-N65). The concentration of leptin in the filtrated solution was determined with ELISA methods by using a Rat Leptin Determination Kit-IBL (Immuno-Biological Laboratories Co., Ltd., Cat. No. 17195). The facilitating activity of the compound to produce leptin was calculated from the following equation based on the concentration of leptin determined.
Facilitating Activity of the Compound to Produce Leptin (%)=(A/B)×100
A: Concentration of Leptin in the Treated Group with the Test Compound.
B: Concentration of Leptin in the Control Group.

Rat white adipocytes = assay: Inhibition of the differentiation of adipocytes (Oil Red O); type: cell-based; details: 100 nM test compound, 5 days, Oil Red O ABS550, control = 100%, blank = 0%, Table 3; for activity at 0.1 µM: Rattus norvegicus, Adipocyte, 120 h, read-out: Rate of Differentiation (%)
Experimental: Rat white adipocytes contained in the white adipocyte culture kit purchased from HOKUDO were used. As the medium for proliferation and for differentiation-inducing, the medium contained in the white adipocyte culture kit purchased from HOKUDO was used. The cells in the present experiment were cultured in a CO2 incubator (37° C., 95% R.H., 5% CO2).
Immediately after arrival of the purchased cells, all medium for transportation was discarded and replaced with 5 ml of proliferation medium (/25 cm^2-flask) and the cells were cultured for one day. Then, a cell suspension was prepared with proliferation medium so as to be 83,000 cells/mL, and the cell suspension was plated into a type I 96-well collagen-coated microplate (SUMITOMO BAKELITE CO., ltd.) so as to be 5,000 cells/well (60 μL/well).
On the next day, all the proliferation medium was discarded and replaced with 147 μL/well of differentiation-inducing medium. Further, 1) in the group treated with the test compound, 3 μL/well of the solution, in which a test compound (100 μM) was dissolved in DMSO solution and diluted with differentiation-inducing medium by 20 times (final concentration of the test compound: 100 nM, final concentration of DMSO solution: 0.1% (v/v)), were added to the well where the cells were plated. 2) In the control group, 3 μL/well of DMSO solution that was diluted with differentiation-inducing medium by 20 times (final concentration of DMSO: 0.1% (v/v)) were added to the well where the cells were plated. Further, 3) in the blank group, 3 μL/well of DMSO solution that was diluted with differentiation-inducing medium by 20 times (final concentration: 0.1% (v/v)), was added to the blank well.
After culturing for 5 days, all differentiation-inducing medium was discarded and replaced with 60 μL of 10% (v/v) formaldehyde solution (for fixation) in each well and the cells were kept stationary for 20 min at room temperature. After this, the fixative solution was discarded and replaced with 60 μL of 0.2% (v/v) Triton X (Sigma-Aldrich Japan K. K.) solution in each well and kept stationary for 5 min at room temperature. Then all Triton X solution was discarded and replaced with 60 μL of 60% (v/v) isopropanol solution containing dissolved Oil Red O (Sigma-Aldrich Japan K. K.) so as to be 0.3%, which was adipose tissue staining solution, and the well was left stationary for 10 min at room temperature. After the adipose tissue staining solution was discarded, the well was washed twice with 60 JIL of 60% isopropanol solution. Then, 100 μL of the DMSO solution were added to each well and stirred for 5 min at room temperature, The absorbance was measured at 550 nm (ABS550) with a multi-plate reader (LabSystems), and the stained amount with Oil Red O was determined. The measured level at ABS550 in the control group was defined as 100%, while the level at ABS550 in the blank group was defined as 0%. The differentiation rate (%) of the adipocytes treated with the test compound was calculated.

| Structure (SMILES) | activity at 0.1 µM [1] [%] | activity at 0.1 µM (Rat white adipocytes) [%] | also measured |
| --- | --- | --- | --- |
| Cc1cccc(C(C)C)c1NC(=O)c1cc([N+](=O)[O-])ccc1Cl [Example 19, N-(2-Isopropyl-6-methylphenyl)-(2-chloro-5-nitrophenyl)carboxamide] | 64.8 |  |  |
| O=C(O)c1ccc(NC(=O)c2cc([N+](=O)[O-])ccc2Cl)cc1 [Example 27, 4-[(2-Chloro-5-nitrophenyl)carbonylamino]benzoic Acid] | 66 |  |  |
| CCOC(=O)c1c[nH]nc1NC(=O)c1cc([N+](=O)[O-])ccc1Cl [Example 71, N-(4-Ethoxycarbonylpyrazol-3-yl)-(2-chloro-5-nitrophenyl)carboxamide] | 65.8 |  |  |
| CC(=O)Oc1c(C)c(C)c2c(c1C)C(=O)CC(C)(COc1ccc(NC(=O)c3cc([N+](=O)[O-])ccc3Cl)cc1)O2 (centres unmarked) [Example 91, N-[4-(6-Acetoxy-2,5,7,8-tetramethyl-4-oxochroman-2-ylmethoxy)phenyl]-(2-chloro-5-nitrophenyl)carboxamide] | 85.8 |  | activity at 1 µM (leptin production): 114%; activity at 0.1 µM (leptin production): 110% |
| CCCCCCCCCCCCCCc1sc(NC(=O)c2cc([N+](=O)[O-])ccc2Cl)nc1-c1ccccc1 [Example 109, N-(4-Phenyl-5-tetradecylthiazol-2-yl)-(2-chloro-5-nitrophenyl)carboxamide] | 64.6 |  | activity at 1 µM (leptin production): 112% |
| Cc1ccc(NS(=O)(=O)c2ccc(NC(=O)c3cc([N+](=O)[O-])ccc3Cl)cc2)cc1 [Example 144, N-[4-(4-Tolylaminosulfonyl)phenyl]-(2-chloro-5-nitrophenyl)carboxamide] | 82.2 |  |  |
| Nc1ccc(NC(=O)c2cc([N+](=O)[O-])ccc2Cl)cc1 [Example 180, N-(4-Aminophenyl)-(2-chloro-5-nitrophenyl)carboxamide] |  |  | Rate of Differentiation (%) (Rat white adipocytes): 59.1% |
| CCCCCCCCN(CCCCCCCC)c1ccc(-c2ccc(NC(=O)c3cc([N+](=O)[O-])ccc3Cl)cc2)cc1 [Example 185, N-[4-[4-(N,N-Dioctylamino)phenyl]phenyl]-(2-chloro-5-nitrophenyl)carboxamide Hydrochloride] |  |  | activity at 1 µM (leptin production): 123%; activity at 0.01 µM (leptin production; 10 nm): 122%; activity at 0.1 µM (leptin production): 132% |
| CCCCN(C)c1ccc(-c2ccc(NC(=O)c3cc([N+](=O)[O-])ccc3Cl)cc2)cc1 [Example 210, N-[4-[4-(N-Butyl-N-methylamino)phenyl]phenyl]-(2-chloro-5-nitrophenyl)carboxamide] |  | 47.6 |  |
| CCCN(C)c1ccc(-c2ccc(NC(=O)c3cc([N+](=O)[O-])ccc3Cl)cc2)cc1 [Example 213, N-[4-[4-(N-Methyl-N-propylamino)phenyl]phenyl]-(2-chloro-5-nitrophenyl)carboxamide] |  | 47.4 |  |
| CCCCCN(C)c1ccc(-c2ccc(NC(=O)c3cc([N+](=O)[O-])ccc3Cl)cc2)cc1 [Example 215, N-[4-[4-(N-Methyl-N-pentylamino)phenyl]phenyl]-(2-chloro-5-nitrophenyl)carboxamide] |  | 45.2 |  |
| O=C(Nc1ccc(C(O)(C(F)(F)F)C(F)(F)F)cc1)c1cc([N+](=O)[O-])ccc1Cl [Example 237, N-[4-(2,2,2-Trifluoro-1-hydroxy-1-trifluoromethylethyl)phenyl]-(2-chloro-5-nitrophenyl)carboxamide] |  | 46.9 |  |
